pKi: −log10 of the molar value.
These molecules were tested against D(2) dopamine receptor (Mus musculus, UniProt P61168).
D(2) dopamine receptor, sequence (P61168 whole entry): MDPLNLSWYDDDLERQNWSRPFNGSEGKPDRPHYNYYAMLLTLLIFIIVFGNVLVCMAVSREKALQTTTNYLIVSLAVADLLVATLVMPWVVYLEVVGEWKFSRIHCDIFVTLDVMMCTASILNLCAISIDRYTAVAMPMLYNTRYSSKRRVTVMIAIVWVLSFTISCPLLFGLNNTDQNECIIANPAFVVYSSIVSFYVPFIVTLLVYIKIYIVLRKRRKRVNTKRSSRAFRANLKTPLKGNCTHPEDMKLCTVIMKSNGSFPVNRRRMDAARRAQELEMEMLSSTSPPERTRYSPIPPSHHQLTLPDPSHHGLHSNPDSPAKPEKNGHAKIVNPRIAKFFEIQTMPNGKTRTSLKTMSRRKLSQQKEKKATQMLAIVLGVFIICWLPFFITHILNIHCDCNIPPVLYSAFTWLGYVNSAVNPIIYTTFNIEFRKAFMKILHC

Question: With `CCCN1CCCC(c2cccc(O)c2)C1` (configuration not stated) [CAS_85976-54-1] as the molecule, how does the pKi read?
Answer: 5.25

Question: `OCCN1CCN(CC/C=C2/c3ccccc3Sc3ccc(C(F)(F)F)cc32)CC1` [(cis) 2-{4-[3-(2-Trifluoromethyl-thioxanthen-9-ylidene)-propyl]-piperazin-1-yl}-ethanol(Flupentixol)] was tested. Which pKi did it give?
Answer: 9.32

Question: With `O=c1[nH]c2ccccc2n1C1CCN(CCCC(c2ccc(F)cc2)c2ccc(F)cc2)CC1` [1-(1-(4,4-bis(4-fluorophenyl)butyl)piperidin-4-yl)-1H-benzo[d]imidazol-2(3H)-one] as the molecule, how does the pKi read?
Answer: 9.72

Question: `CCN1CCC[C@H]1CNC(=O)c1cc(I)cc(OC)c1OC` was tested. Which pKi did it give?
Answer: 10.30

Question: With `CCN1CCCC1CNC(=O)c1cc(S(N)(=O)=O)ccc1OC` (configuration not stated) [N-[(1-ethylpyrrolidin-2-yl)methyl]-2-methoxy-5-sulfamoylbenzamide] as the molecule, how does the pKi read?
Answer: 7.84

Question: How did the pKi turn out when `CC(C)C[C@H]1C(=O)N2CCC[C@H]2[C@]2(O)O[C@](NC(=O)[C@@H]3C=C4c5cccc6[nH]c(Br)c(c56)C[C@H]4N(C)C3)(C(C)C)C(=O)N12` [Bromocriptine+ (GTP+)] was run?
Answer: 9.16

Question: With `O=C(O)c1ccccc1C(=O)Nc1cccc2ccccc12` [NPA,(+)] as the molecule, how does the pKi read?
Answer: 8.15

Source: BindingDB's records for PubMed 2017157 (Medical Research Service, 1991)
